“Also recorded” adds a separate entry of the source.
Columns and labels:
[1] = biological target: T1, purified LasB protein from P. aeruginosa (Pseudomonas aeruginosa, UniProt P14756); experiment: Fluorometric assay to determine Ki (purified LasB, Abz-Ala-Gly-Leu-Ala-p-Nitro-Benzyl-Amide substrate); assay type: biochemical
T1 construct: purchased Merck or Charles River Laboratories
Outline: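 Purified P. aeruginosa LasB (10-140 ng/ml) with 250 μM Abz-Ala-Gly-Leu-Ala-p-nitrobenzylamide in Tris pH 7.4, 2.5 mM CaCl2, 0.01% Triton X100; fluorescence (340/415 nm) followed 30 min at 37 °C. IC50 from 2-fold series (0.0016-200 μM); Ki = IC50/(1+[S]/Km), Km 214 μM.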

[2] = biological target: T2, LasB elastase activity of dialysed supernatant from P. aeruginosa PAO1 (Pseudomonas aeruginosa, UniProt P14756); experiment: Elastin Congo-Red assay to determine % inhibition (dialysed PAO1 supernatant); assay type: biochemical; conditions: read-out: Elastin hydrolysis % inhibition @ 25 μM inhibitor concentration
T2 construct: Culture supernatants are recovered by centrifugation and filtrated through a 0.22 μM filter; endogenous in cells; host or cells: P. aeruginosa strain PAO1, culture supernatant, filtered and dialysed
T2 sequence (P14756 198-498): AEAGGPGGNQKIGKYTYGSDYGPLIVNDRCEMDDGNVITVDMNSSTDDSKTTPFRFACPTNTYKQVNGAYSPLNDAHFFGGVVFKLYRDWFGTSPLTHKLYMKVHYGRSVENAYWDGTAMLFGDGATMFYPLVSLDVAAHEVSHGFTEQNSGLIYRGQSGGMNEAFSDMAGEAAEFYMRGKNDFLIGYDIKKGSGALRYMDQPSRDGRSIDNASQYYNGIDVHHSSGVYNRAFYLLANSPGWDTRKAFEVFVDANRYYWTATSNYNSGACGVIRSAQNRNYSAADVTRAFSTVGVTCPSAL
Outline: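 End-point assay: dialysed PAO1 culture supernatant (in 50 mM Tris-HCl pH 7.4, 2.5 mM CaCl2) mixed with Elastin Congo-Red plus 0.01% Triton X100 and compound (routinely 50 to 1.56 μM), incubated overnight at 37 °C with shaking. Released dye read at OD495nm; % inhibition relative to DMSO and enzyme-free controls.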

purified LasB = purified LasB (Pseudomonas aeruginosa, UniProt P14756); experiment: Inhibition of LasB-mediated hydrolysis of pro-IL-1β to IL-1β (FRET peptide); assay type: biochemical
Chain of purified LasB (P14756 198-498): as above
Description: Hydrolysis of this FRET peptide was continuously monitored using a Victor multimode plate reader (Perkin Elmer) with excitation 355 nm and emission at 450 nm in the presence of varying concentrations of compounds of the invention. Inhibitory constants (Ki) were determined for certain compounds of the invention (at least 2 independent replicates) using a competitive inhibitor model.

PA (PAO1) = experiment: Mouse model of Pseudomonas aeruginosa lung infection; assay type: in vivo; conditions: mice infected with wild-type PAO1, i.v. 1 h and 2 h post infection, 10 and 30 mg/kg, 24 hours post infection
Description: Mice were dosed by intranasal inoculation of PA (PAO1), then sacrificed after 24 hours. The extent of infection in the lung was quantified by bacterial load (CFU determination, colony forming units) and the levels of proinflammatory IL-1β. Statistical analysis on both readouts were performed by ANOVA with a Dunnett post-test.
Compounds were administered intravenously in a two-dose regimen (1 hour and 2 hours post infection) at two different doses (10 and 30 mg/kg).

[3] = biological target: T3, LasB from Pseudomonas aeruginosa (Pseudomonas aeruginosa, UniProt P14756); experiment: Inhibition of LasB-mediated reduction of CFTR levels on airway cells (CFTR IP / Western blot); assay type: cell-based; conditions: NHBE airway cells, 100 nM LasB, 1, 10 or 100 μM compound, 24 hrs
T3 construct: host or cells: Exogenous enzyme applied apically to NHBE cells
T3 sequence (P14756 198-498): as above
Description: These experiments measured the amount of CFTR protein expressed in airway cells under normal conditions and also exposed to 100 nM LasB. […] The effect of adding increasing concentrations of a LasB inhibitor (here the compound of Example 23) on this reduction of CFTR by LasB was then examined.
Normal Human Bronchial Epithelial (NHBE) airway cells were expanded in Pneumacult™ EX medium on plastic PureCol™ coated dishes. Cells were plated on Millicell inserts (200K/insert) and differentiated at air-liquid interface for 26 days in modified Lonza Medium. Prior to treatment, cells were washed in 1×DPBS buffer.
Treatments were 100 nM LasB from Pseudomonas aeruginosa and 0, 1, 10, or 100 μM Example 23 for 24 hrs. A stock solution of LasB (200 nM) was prepared in buffer containing 50 mM Tris HCL pH 7.4, 2.5 mM CaCl2 and 0.01% TritonX-100. A 20 mM stock solution of Example 23 was made in DMSO and sonicated for 10 minutes. The DMSO stock was diluted, 10 μL into 990 μL buffer, to give a 200 μM solution. […]
The cells were lysed with 1% NP-40 lysis buffer containing protease inhibitors (1 μg/ml leupeptin, 2 μg/ml aprotinin, […] pefabloc, 121 μg/ml benzamidine, 3.5 μg/ml E64) and stored at −80° C. until IP/WB analysis. […] Protein bands were visualized using a Sapphire Biomolecular Imager (Azure Biosystems) and quantitated with AzureSpot Analysis Software.

T1 sequence (P14756 198-498): as above

Q: For `COc1cc2sc(CNC(=O)C3(CC(=O)[O-])Cc4cc(F)c(F)cc4C3)nc2cc1OCCC[N+](C)(CCO)CCO` [Example 23, 2-[2-[[5-[3-[bis(2-hydroxyethyl)-methyl-ammonio]propoxy]-6-methoxy-1,3-benzothiazol-2-yl]methylcarbamoyl]-5,6-difluoro-indan-2-yl]acetate], which Ki [1] is on record?
A: < 50 nM

Q: What about the inhibition at 25 µM [2] of the same molecule?
A: > 80%

Q: And the Ki (purified LasB)?
A: 500 nM

Q: And the “extent of infection in the lung (CFU levels)” value (PA (PAO1))?
A: reduced the extent of infection in the lung to the level of the LasB deleted mutant

Q: What about the “production and activation of IL-1β in the lung” value (PA (PAO1)) of the same molecule?
A: inhibited the production and activation of IL-1β in mice infected by wild-type PA (PA01) at a similar level than the lasB deleted mutant

Q: What about the “CFTR protein level in LasB-exposed cells” value [3] of the same molecule?
A: ameliorated by increasing concentrations of Example 23; also recorded: counteract the reduction in CFTR expression caused by LasB in a dose-related manner
